The subject of series [1] is Mycosphaerella graminicola; Anamorph: Septoria tritici; Bayer Code SEPTTR. The experiment in a line: Fungicidal activity vs. leaf blotch of wheat (SEPTTR), one-day protectant (1DP). It is filed as in vivo, Septoria tritici on wheat plants (variety Yuma). The conditions noted are these: rating of % disease control vs untreated, inoculated plants. The protocol: (§1) Example A: Evaluation of Fungicidal Activity: Leaf Blotch of Wheat (Mycosphaerella graminicola; Anamorph: Septoria tritici; Bayer Code SEPTTR):
(§2) Wheat plants (variety Yuma) were grown from seed in a greenhouse in 50% mineral soil/50% soil-less Metro mix until the first leaf was fully emerged, with 7-10 seedlings per pot. These plants were inoculated with an aqueous spore suspension of Septoria tritici either prior to or after fungicide treatments. After inoculation the plants were kept in 100% relative humidity (one day in a dark dew chamber followed by two to three days in a lighted dew chamber) to permit spores to germinate and infect the leaf. The plants were then transferred to a greenhouse for disease to develop.
(§3) The following table presents the activity of typical compounds of the present disclosure when evaluated in these experiments. The effectiveness of the test compounds in controlling disease was determined by assessing the severity of disease on treated plants, then converting the severity to percent control based on the level of disease on untreated, inoculated plants.

The test system is the same in series [2]. The experiment in a line: Fungicidal activity vs. leaf blotch of wheat (SEPTTR), three-day curative (3DC). It is filed as in vivo, Septoria tritici on wheat plants (variety Yuma). The conditions noted are these: rating of % disease control vs untreated, inoculated plants. The protocol: as §1, §2, §3

Structures are written as SMILES.

As usually defined, the melting point is the temperature of the solid-liquid transition. The molecule `COc1ccc(OC(=O)n2cc(F)c(=N)n(C)c2=O)cc1` [Compound 1, 4-methoxyphenyl 5-fluoro-4-imino-3-methyl-2-oxo-3,4-dihydropyrimidine-1(2H)-carboxylate] returned a melting point of 135.6 to 137.1 °C. Besides, the “SEPTTR 100 PPM 1DP” value in series [1] is reported as “A (76-100)”. Also, in series [2], the “SEPTTR 100 PPM 3DC” value is on record as “A (76-100)”.

Consider `COc1ccc(OC(=O)/N=c2/c(F)cn(C(=O)Oc3ccc(OC)cc3)c(=O)n2C)cc1` [Compound 2], for which the melting point lay in the range of 161.8 to 165.6 °C. Besides, in series [1], the “SEPTTR 100 PPM 1DP” value is “A (76-100)”. Besides, in series [2], the “SEPTTR 100 PPM 3DC” value is “A (76-100)”.

As for `Cc1ccc(OC(=O)n2cc(F)c(=N)n(C)c2=O)cc1` [Compound 3], the melting point was 109 to 110.2 °C. The “SEPTTR 100 PPM 1DP” value in series [1] was “A (76-100)”. Besides, the “SEPTTR 100 PPM 3DC” value in series [2] is “A (76-100)”.

In turn, `Cn1c(=N)c(F)cn(C(=O)Oc2ccccc2)c1=O` [Compound 4] gave a melting point of 86.4 to 87.6 °C. For the same molecule, the “SEPTTR 100 PPM 1DP” value in series [1] is given as “A (76-100)”. Besides, in series [2], the “SEPTTR 100 PPM 3DC” value was “A (76-100)”.

Values taken from patent publication US9622474B2, “N-(substituted)-5-fluoro-4-imino-3-methyl-2-oxo-3,4-dihydropyrimidine-1(2H)-carboxylate derivatives” (Adama Makhteshim Ltd., priority 2012, dated 2017).
